Read-outs that look alike come from different tables or passages of the source.
What was measured:
[1] = Pharmacokinetic study of pentoxifylline and Compound 435(S) in chimps after intravenous dosing (Example 38); format: in vivo; conditions: for AUC(0-inf): IV infusion 75 mg each of pentoxifylline and 435(S) over 10 minutes, species named in label measured in plasma; for % Difference in AUC0-∞ Female (deuterated vs nondeuterated species) / % Difference in AUC0-∞ Male (deuterated vs nondeuterated species): intravenous
Procedure: (§1) Pentoxifylline and Compound 435(S) were separately dissolved in warm (65° C.) saline at a concentration at 10 mg/mL. A 1:1 mixture of the two compounds was then prepared containing a final concentration of 5 mg/mL of each compound and the mixture was then sterile filtered through a 0.2-μm filter.
(§2) Two chimps (one male and one female) were used in each of the oral and intravenous studies. Animals were fasted overnight prior to administration of compounds. All animals were sedated with ketamine (approximately 10 mg/kg) and/or telazol (approximately 5 mg/kg) prior to dosing. Intravenous administration was achieved by IV infusion of 75 mg of each compound (15 mL total dosing solution) over 10 minutes. Oral administration was achieved by oral gavage of a single 75 mg dose of each compound (15 mL total dosing solution). Blood samples (6 mL) were collected from the dosed chimps at various times prior to and after dosing. For intravenous administrations blood samples were collected at 0 min (preinfusion), 5 min, 9.5 min (immediately before the end of the infusion), then 6, 15, 30 and 45 min, and 1, 2, 4, 6, 8, 10 and 12 hr after the infusion is stopped. For oral administrations, blood samples were collected at 0 min (predose), 15 and 30 min, and 1, 1.5, 2, 4, 6, 8, 10 and 12 hr postdose.
(§3) Blood samples were placed in tubes containing sodium heparin, mixed and stored on ice until centrifuged. Within 30 minutes of collection, plasma was isolated by centrifuging the blood samples and removing an aliquot (200 μL) of the resulting plasma. Each 200-μL aliquot of plasma was mixed with 400 μL acetonitrile and stored at −70° C. until further analysis by LC-MS/MS using an Applied Bio-systems API 4000 mass spectrometer.
(§4) The analysis of all samples by LC-MS/MS was performed as described above for the rat plasma samples in Example 37.

[2] = Pharmacokinetic study in rats of (S)-M1 and Compound 435(S) after oral dosing (Example 37); format: in vivo, male Sprague-Dawley rats
Procedure: (§5) (S)-M1 and Compound 435(S) (a deuterated form of (S)-M1) were separately dissolved in saline at a concentration of 10 mg/mL. A 1:1 mixture of the two compounds was then prepared containing a final concentration of 5 mg/mL of each compound, which was used for intravenous administration. For oral administration the mixture was further diluted in saline to a final concentration of 1 mg/mL for each compound.
(§6) Three male Sprague-Dawley rats were used in each of the oral and intravenous studies. Animals were fasted overnight prior to administration of compounds. Intravenous administration was achieved by bolus injection of a single 5 mg/kg dose of the 1:1 combination into the cannulated jugular vein of the rats. Cannulation was achieved the day prior to dosing on rats that had been placed under anesthesia using ketamine (IM 30 mg/kg). Oral administration was achieved by oral gavage of a single 5 mg/kg dose. Blood samples (250 μL) were collected from the dosed rats at various times post-dosing (2 min, 5 min, 10 min, 20 min, 30 min, 1 hr, 2 hr, 3 hr, 4 hr, 5 hr, 6 hr) by retro-orbital sampling of the rats temporarily anesthetized with isoflurane. Blood samples were placed in tubes containing K2-EDTA and stored on ice until centrifuged. Within 30 minutes of collection, plasma was isolated by centrifugation. A 100-μL aliquot was removed, mixed with 200 μL of acetonitrile and stored at −20° C. until further analysis by LC-MS/MS using an Applied Bio-systems API 4000 mass spectrometer.
(§7) Samples were analyzed for the presence of the administered compound, the corresponding ketone (pentoxifylline and Compound 409) and the corresponding M5 metabolite. Samples (10 μL) were injected into a Zorbax SB-C8 (Rapid Resolution) column (2.1×30 mm, 3.5 μm). The initial mobile phase condition was 100% A (10 mM ammonium acetate in water) and 0% B (methanol) with a flow rate at 0.5 mL/min. Mobile phase B was allowed to reach 55% in 3 minutes and from 55% to 90% in 1 minute before ramping back to 0% in another minute. The overall run time was 5 minutes. For pentoxifylline and its M1 and M5 metabolites, the precursor/product ion pairs were set at m/z 281/193 (M1), m/z 279/181 (pentoxifylline), and m/z 267/221 (M5).
(§8) For Compound 435(S) and Compound 409 more than one ion pair was set up for to detect species that arose from loss of deuterium. […] This loss of deuterium appears to occur both in vivo and ex vivo by an unknown mechanism. The addition of acetonitrile to serum samples was used to stop any additional ex vivo deuterium loss prior to analysis. Typically, no more than 2 deuterium atoms were replaced by hydrogen. For Compound 435(S), there is a deuterium at the methinyl position which was lost upon oxidation to the keto-compound 409. Reduction of 409 to an M1 metabolite introduced a proton at the methinyl position. When serum from animals dosed with 435(S) were analyzed to quantitate administered compound and metabolites, compound species were included with one and two less side chain deuteriums in the total amounts (referred to hereinafter as the “−1D” and the “−2D” species). Thus, for Compound 435(S) and Compound 409 separate ion pairs were set up to detect the compound and its corresponding −1D and −2D species. For Compound 435(S) three ion pairs were detected: m/z 291/197, 290/197, and […]. For Compound 409 ion pairs of m/z 288/186, 287/186 and 286/186 were monitored. Inclusion of −1D and −2D species in the measurements of Compound 409 and Compound 435(S) more accurately quantitates the total active species and is reasonable based on what is known about the metabolism and activities of pentoxifylline and its M-1 metabolites. Increased plasma exposure to Compound 409 or any M-1 metabolites of 409 would be desirable. This includes the −1D and −2D species.
(§9) [drawing 78] which has no deuterium on its acid side chain, only one ion pair was used at m/z 271/225. The internal standard for the analysis was indiplon.

[3] = Pharmacokinetic study in rats of (S)-M1 and Compound 435(S) after intravenous dosing (Example 37); format: in vivo, male Sprague-Dawley rats; conditions: for AUC(0-inf): male, Sprague-Dawley, rat
Procedure: as §5, §6, §7, §8, §9

[4] = Pharmacokinetic study of pentoxifylline and Compound 435(S) in chimps after oral dosing (Example 39); format: in vivo; conditions: for % Difference in AUC0-12 Female (deuterated vs nondeuterated species) / % Difference in AUC0-12 Male (deuterated vs nondeuterated species): oral
Procedure: Pentoxifylline and Compound 435(S) were tested according to a protocol similar to the Oral Dosing protocol followed in Example 38, except that (a) the compounds were separately dissolved in water rather than saline; (b) the mixture of the two compounds was not sterile filtered; and (c) oral administration was achieved by oral gavage of a single 65 mg dose of each compound (13 mL total dosing solution).

[5] = Pharmacokinetic study of pentoxifylline and Compound 435(S) in chimps after oral dosing (Example 38); format: in vivo; conditions: for % Difference in AUC0-∞ Female (deuterated vs nondeuterated species) / % Difference in AUC0-∞ Male (deuterated vs nondeuterated species): oral; for AUC(0-inf): oral gavage 75 mg each of pentoxifylline and 435(S) as 1:1 mixture, species named in label measured in plasma
Procedure: as §1, §2, §3, §4

[6] = female chimp, read-out: AUC0-∞ Female
[7] = male chimp, read-out: AUC0-∞ Male
[8] = male, Sprague-Dawley, rat, oral gavage single 5 mg/kg dose, 1:1 mixture of (S)-M1 and 435(S), species named in label measured in plasma, −1D and −2D species included
[9] = intravenous bolus single 5 mg/kg dose of 1:1 combination of (S)-M1 and 435(S), species named in label measured in plasma
[10] = female chimp, oral gavage 65 mg each of pentoxifylline and 435(S) in water, species named in label measured in plasma, read-out: AUC0-12 Female
[11] = male chimp, oral gavage 65 mg each of pentoxifylline and 435(S) in water, species named in label measured in plasma, read-out: AUC0-12 Male

AUC(0-inf) [2, 8] | % Difference in AUC0-∞ (deuterated vs nondeuterated species) ([2]; oral) | AUC(0-inf) [3, 9] | Compound | AUC(0-inf) [1, 6] | % Difference in AUC0-∞ Female (deuterated vs nondeuterated species) ([1]; female chimp) | AUC(0-inf) [1, 7] | % Difference in AUC0-∞ Male (deuterated vs nondeuterated species) ([1]; male chimp) | % Difference in AUC0-12 Female (deuterated vs nondeuterated species) ([4]; female chimp) | AUC(0-t) [4, 10] | % Difference in AUC0-12 Male (deuterated vs nondeuterated species) ([4]; male chimp) | AUC(0-t) [4, 11] | % Difference in AUC0-∞ Female (deuterated vs nondeuterated species) ([5]; female chimp) | AUC(0-inf) [5, 6] | % Difference in AUC0-∞ Male (deuterated vs nondeuterated species) ([5]; male chimp) | AUC(0-inf) [5, 7] | further results
4510 ± 1020 ng·h/mL | +177% | 7130 ± 816 ng·h/mL | [2H]c1nc2c(c(=O)n(CCCC([2H])([2H])[C@@]([2H])(O)C([2H])([2H])[2H])c(=O)n2C)n1C([2H])([2H])[2H] [Compound 435(S), (S)-8-d1-1-(4,4,5,6,6,6-d6-5-Hydroxyhexyl)-3-methyl-7-(methyl-d3)-1H-purine-2,6(3H,7H)-dione] | 1210 ng·h/mL | +84% | 2520 ng·h/mL | +61% | +108% | 183 ng·h/mL | +185% | 214 ng·h/mL | +123% | 672 ng·h/mL | +176% | 829 ng·h/mL | Cmax ([2]; male, Sprague-Dawley, rat, oral gavage single 5 mg/kg dose, 1:1 mixture of (S)-M1 and 435(S), species named in label measured in plasma, read-out: Cmax): 4100 ± 964 ng/mL; % Difference in Cmax (deuterated vs nondeuterated species) ([2]; oral): +162%
– | – | – | C[C@H](O)CCCCn1c(=O)c2c(ncn2C)n(C)c1=O [(S)-M1, reference compound] | – | – | – | – | – | – | – | – | – | – | – | – | Ratio of active species (M1 alcohol + ketone) to M5 metabolite ([2]; oral administration, from AUC0-∞): 1.6; Cmax ([2]; oral gavage single 5 mg/kg dose, 1:1 mixture of (S)-M1 and 435(S), species named in label measured in plasma): 1570 ± 249 ng/mL; AUC0-∞ ([2]; oral gavage single 5 mg/kg dose, 1:1 mixture of (S)-M1 and 435(S), species named in label measured in plasma, −1D and −2D species included): 1628 ± 272 ng·h/mL; Ratio of active species to the corresponding M5 metabolite ([3]; intravenous administration): 3.5; AUC0-∞ [3, 9]: 3390 ± 302 ng·h/mL; AUC0-12 Female ([4]; female chimp, oral gavage 65 mg each of pentoxifylline and 435(S) in water, species named in label measured in plasma): 88 ng·h/mL; AUC0-12 Male ([4]; male chimp, oral gavage 65 mg each of pentoxifylline and 435(S) in water, species named in label measured in plasma): 75 ng·h/mL; AUC0-∞ Female ([5]; in vivo, po, 75 mg): 301 ng·h/mL; AUC0-∞ Male ([5]; in vivo, po, 75 mg): 300 ng·h/mL
1920 ± 183 ng·h/mL | −36% | 1520 ± 530 ng·h/mL | [2H]c1nc2c(c(=O)n(CCCC(=O)O)c(=O)n2C)n1C([2H])([2H])[2H] [Deuterated M5 (M5a)] | 632 ng·h/mL | −60% | 428 ng·h/mL | −65% | −25% | 609 ng·h/mL | −18% | 667 ng·h/mL | −68% | 606 ng·h/mL | −68% | 462 ng·h/mL | % Difference in AUC0-∞ (deuterated vs nondeuterated species) ([3]; intravenous): −15%; Amount of M5a metabolite less than amount of M5 metabolite ([3]; intravenous administration of Compound 435(S) vs (S)-M1): 15%
